# Test results published in publication PMC11570809, “Novel N-phenyl-2-(aniline) benzamide hydrochloride salt development for colon cancer therapy” (Frontiers in Pharmacology, 2024).
# “Also recorded” adds a separate entry of the source. Where a name gives a salt, the structure may show the parent alone.
# How the values were obtained:
# PC-3 = experiment: MTT anti-proliferation assay, PC-3; assay type: cell-based; conditions: Homo sapiens, PC-3, 72 h, read-out: IC50 ± SD PC-3
# HT29 = experiment: MTT anti-proliferation assay, HT29; assay type: cell-based, human; conditions: 72 h, read-out: IC50 ± SD HT29
# Method: The anti-proliferation activities of synthesized compounds to colon cancer cell lines were measured by the MTT (3-[4,5-dimethyl-2-thiazolyl]-2,5-diphenyl-2H-tet razolium bromide) assay. First, the cell suspension was prepared by trypsin and the corresponding medium, cells were diluted to 5 × 10^5 cells/mL, and 96-well plates were added 200 μL per well. The plates were maintained at 37°C in a humidified atmosphere containing 5% CO2 overnight. Then compounds at gradient concentrations were added to cells in the logarithmic phase to make the final concentration at 0.5, 1, 2, 4, 8, 16, and 32 μM. The cells were treated with tested compounds for 72 h, and the growth curve assay was tested in 24 h. When the time was up, 20 μL of MTT solution (5 mg/mL in PBS) was added into each well to incubate for 4 h at 37°C. Then the supernatant liquid was removed, 150 μL DMSO was added into every well to dissolve formazan crystals and read the absorbance at 570 nm by Spark microplate spectrophotometer (Tecan, Swiss). The IC50 values were analyzed by IBM SPASS Statistics 25.0 software. The data are all derived from three parallel experiments (n = 3) and expressed as mean ± SD.
# HT29 cells = experiment: Plane colony assay, HT29; assay type: cell-based, human; conditions: HT29, 1, 2 and 4 µM
# Method: In 6-well plates, HT29 cells and RKO cells (1 × 10^3 cells/well) were inoculated and maintained overnight. Then treated with N53 and N53·HCl at different concentrations for 24 h and with normal culture-medium for 7 days respectively. After that, removed supernatant and fixed by 4% paraformaldehyde for 15 min. Then fixed cells were stained with 1% crystal violet dye for 15 min and rinsed with water. Finally, colonies were counted according to rules that nonoverlapping groups of at least 50 cells. The data are all derived from three parallel experiments (n = 3) and expressed as mean ± SD.
# [1] = Acute toxicity study (OECD guidelines), single dose by gavage; assay type: in vivo
# Method: Acute toxicity studies were conducted for N53·HCl following OECD guidelines. Sixteen Kunming mice were purchased from SPF (Beijing) Biotechnology Co., Ltd. The mice were randomly divided into two groups (n = 8, 4 female and 4 male mice per group). The control group was treated with saline containing 10% DMSO, 10% Solutol HS -15, and the experimental group was treated with N53·HCl at a dose of 1,000 mg/kg (suspended in saline containing 10% DMSO and 10% Solutol HS -15).
# All treatments were administered with a single dose by gavage. […] It can be seen that N53·HCl is a safe agent with an oral LD50 of more than 1,000 mg/kg in mice.
# [2] = Hygroscopicity and stability of the salt forms; assay type: physicochemical; conditions: solid salt
structure (smiles),measurement,setting,value
"Cc1c(Cl)cccc1Nc1ccccc1C(=O)Nc1ccc(N2CCN(C)CC2)cc1 [N53·HCl, 4-(4-(2-((3-chloro-2-methylphenyl)amino)ben-zamido)phenyl)-1-methylpiperazin-1-ium]",IC50,PC-3,13.7 ± 0.8 µM
same,IC50,HT29,2.95 ± 0.08 µM
same,Number of cell clones formed,HT29 cells,decreased significantly and dose-dependently
same,"Gross and histological (H&E) examination of major organs (heart, liver, kidney, spleen)","[1]; 1,000 mg/kg single dose by gavage, after 14 days",no obvious toxic effects; also recorded: no significant abnormalities
same,Symptoms and body weight compared to vehicle-treated control,"[1]; 1,000 mg/kg single dose by gavage, monitored 14 days",no significant changes in symptoms and body weight
same,LD50 at 14 days,"[1]; both sexes, Kunming, mouse, in vivo, po",> 1000 mg/kg
same,Hygroscopicity,[2],low in hygroscopicity
same,Stability,[2],relatively stable under various conditions
